Results: US20110152236A1 (SANOFI-AVENTIS, priority 2008, published 2011)

Row | melting point | SMILES
1 | 165 °C | N#Cc1ccnc(NC(=O)c2cc(F)cc(NS(=O)(=O)CC3CN(C(c4ccc(Cl)cc4)c4ccc(Cl)cc4)C3)c2)c1 [Compound 34, 3-({1-[bis(4-chlorophenyl)methyl]azetidin-3-yl}methylsulphonylamino)-N-(4-cyanopyridin-2-yl)-5-fluorobenzamide]
2 | 234 to 236 °C | CS(=O)(=O)N(c1cc(F)cc(C(=O)Nc2cnoc2)c1)C1CN(C(c2ccc(Cl)cc2)c2ccc(Cl)cc2)C1 [Compound 24, 3-[{1-[bis(4-chlorophenyl)methyl]azetidin-3-yl}(methylsulphonyl)amino]-5-fluoro-N-(isoxazol-4-yl)benzamide]
3 | 222 to 224 °C | Cc1cc(NC(=O)c2cc(F)cc(N(C3CN(C(c4ccc(Cl)cc4)c4ccc(Cl)cc4)C3)S(C)(=O)=O)c2)no1 [Compound 21, 3-[{1-[Bis(4-chlorophenyl)methyl]azetidin-3-yl)(methylsulphonyl)amino]-5-fluoro-N-(5-methylisoxazol-3-yl)benzamide]
4 | 124 °C | CS(=O)(=O)N(c1cccc(C(=O)NCc2nn[nH]n2)c1)C1CN(C(c2ccc(Cl)cc2)c2ccc(Cl)cc2)C1 [Compound 33, 3-[{1-[bis(4-chlorophenyl)methyl]azetidin-3-yl}(methylsulphonyl)amino]-N-(2H-tetrazol-5-ylmethyl)benzamide]
5 | 120 °C | CS(=O)(=O)N(c1cccc(C(=O)NCCc2ncccn2)c1)C1CN(C(c2ccc(Cl)cc2)c2ccc(Cl)cc2)C1 [Compound 16, 3-[{1-[bis(4-chlorophenyl)methyl]azetidin-3-yl}(methylsulphonyl)amino]-N-[2-(pyrimidin-2-yl)-ethyl]benzamide]
6 | 224 to 226 °C | Cc1cc(NC(=O)c2cc(F)cc(N(C3CN(C(c4ccc(Cl)cc4)c4ccc(Cl)cc4)C3)S(C)(=O)=O)c2)on1 [Compound 26, 3-[{1-[bis(4-chlorophenyl)methyl]azetidin-3-yl}(methylsulphonyl)amino]-5-fluoro-N-(3-methylisoxazol-5-yl)benzamide]
7 | 222 °C | CS(=O)(=O)N(c1cccc(C(=O)Nc2nc(N)n[nH]2)c1)C1CN(C(c2ccc(Cl)cc2)c2ccc(Cl)cc2)C1 [Compound 31, N-(3-amino-1H-1,2,4-triazol-5-yl)-3-[{1-[bis(4-chlorophenyl)methyl]azetidin-3-yl}(methylsulphonyl)amino]benzamide]
8 | 210 °C | CS(=O)(=O)N(c1cccc(C(=O)NCc2nc[nH]n2)c1)C1CN(C(c2ccc(Cl)cc2)c2ccc(Cl)cc2)C1 [Compound 13, 3-[{1-[Bis(4-chlorophenyl)methyl]azetidin-3-yl}(methylsulphonyl)amino]-N-(1H-1,2,4-triazol-3-ylmethyl)benzamide]
9 | 209 °C | CS(=O)(=O)N(c1cccc(C(=O)NCc2cc(O)no2)c1)C1CN(C(c2ccc(Cl)cc2)c2ccc(Cl)cc2)C1

Second part, the compound before the results:

Row | SMILES | melting point
10 | CS(=O)(=O)N(c1cc(F)cc(C(=O)Nc2ccon2)c1)C1CN(C(c2ccc(Cl)cc2)c2ccc(Cl)cc2)C1 [Compound 17, 3-[{1-[bis(4-chlorophenyl)methyl]azetidin-3-yl}(methylsulphonyl)amino]-5-fluoro-N-(isoxazol-3-yl)benzamide] | 219 to 221 °C
11 | Cc1cccc(NC(=O)c2cc(F)cc(N(C3CN(C(c4ccc(Cl)cc4)c4ccc(Cl)cc4)C3)S(C)(=O)=O)c2)n1 [Compound 28, 3-[{1-[bis(4-chlorophenyl)methyl]azetidin-3-yl}(methylsulphonyl)amino]-5-fluoro-N-(6-methylpyridin-2-yl)benzamide] | 176 to 178 °C
12 | CS(=O)(=O)N(c1cccc(C(=O)Nc2cc[nH]n2)c1)C1CN(C(c2ccc(Cl)cc2)c2ccc(Cl)cc2)C1 [Compound 9, 3-[{1-[bis(4-chlorophenyl)methyl]azetidin-3-yl}(methylsulphonyl)amino]-N-(1H-pyrazol-3-yl)-benzamide] | 150 °C
13 | CS(=O)(=O)N(c1cccc(C(=O)Nc2ccc(N)nc2)c1)C1CN(C(c2ccc(Cl)cc2)c2ccc(Cl)cc2)C1 [Compound 30, N-(6-aminopyridin-3-yl)-3-[{1-[bis(4-chlorophenyl)methyl]azetidin-3-yl}(methylsulphonyl)amino]benzamide] | 210 °C
14 | CS(=O)(=O)N(c1cccc(C(=O)Nc2ncccn2)c1)C1CN(C(c2ccc(Cl)cc2)c2ccc(Cl)cc2)C1 [Compound 8, 3-[{1-[bis(4-chlorophenyl)methyl]azetidin-3-yl}(methylsulphonyl)amino]-N-(pyrimidin-2-yl)-benzamide] | 137 °C
15 | Cc1ccnc(NC(=O)c2cc(F)cc(N(C3CN(C(c4ccc(Cl)cc4)c4ccc(Cl)cc4)C3)S(C)(=O)=O)c2)c1 [Compound 27, 3-[{1-[bis(4-chlorophenyl)methyl]azetidin-3-yl}(methylsulphonyl)amino]-5-fluoro-N-(4-methylpyridin-2-yl)benzamide] | 184 to 186 °C
16 | CS(=O)(=O)N(c1cccc(C(=O)NCc2cc[nH]n2)c1)C1CN(C(c2ccc(Cl)cc2)c2ccc(Cl)cc2)C1 [Compound 14, 3-[{1-[Bis(4-chlorophenyl)methyl]azetidin-3-yl}(methylsulphonyl)amino]-N-(1H-pyrazol-3-ylmethyl)benzamide] | 224 °C
17 | CS(=O)(=O)N(c1cccc(C(=O)Nc2nnc(C3CC3)s2)c1)C1CN(C(c2ccc(Cl)cc2)c2ccc(Cl)cc2)C1 [Compound 6, 3-[{1-[bis(4-chlorophenyl)methyl]azetidin-3-yl}(methylsulphonyl)amino]-N-(5-cyclopropyl-1,3,4-thiadiazol-2-yl)benzamide] | 226 °C
18 | CS(=O)(=O)N(c1cccc(C(=O)Nc2n[nH]cc2C(N)=O)c1)C1CN(C(c2ccc(Cl)cc2)c2ccc(Cl)cc2)C1 [Compound 12, 3-[({3-[{1-[bis(4-chlorophenyl)methyl]azetidin-3-yl}(methylsulphonyl)amino]phenyl}carbonyl)-amino]-1H-pyrazole-4-carboxamide] | 174 °C
19 | Cn1cc(O)nc1NC(=O)c1cccc(N(C2CN(C(c3ccc(Cl)cc3)c3ccc(Cl)cc3)C2)S(C)(=O)=O)c1 [Compound 4, 3-[{1-[bis(4-chlorophenyl)methyl]azetidin-3-yl}(methylsulphonyl)amino]-N-(4-hydroxy-1-methyl-1H-imidazol-2-yl)benzamide] | 134 °C
20 | CS(=O)(=O)N(c1cccc(C(=O)Nc2nccs2)c1)C1CN(C(c2ccc(Cl)cc2)c2ccc(Cl)cc2)C1 [Compound 1, 3-[{1-[Bis(4-chlorophenyl)methyl]azetidin-3-yl}(methylsulphonyl)amino]-N-(1,3-thiazol-2-yl)benzamide] | 244 °C
